According to paper PMC5564600 (Oncotarget, 2017):

Assays:
Experiment in all cases: biochemical
Assay type in all cases: binding
panel of 442 kinases [1] = target: T1, panel of 442 kinases (Homo sapiens, UniProt P50750); settings: CDK9; for remaining activity at 1 µM: read-out: % of control at 1 µM
T1 construct: purchased Ambit Biosciences (scanMAXX KINOMEscan)

panel of 442 kinases [2] = target: T2, panel of 442 kinases (Homo sapiens, UniProt Q02763); settings: kinase TIE2; for remaining activity at 1 µM: read-out: TIE2 (% of control at 1 µM)
T2 construct: purchased Ambit Biosciences (scanMAXX KINOMEscan)
T2 sequence (Q02763 23-1124): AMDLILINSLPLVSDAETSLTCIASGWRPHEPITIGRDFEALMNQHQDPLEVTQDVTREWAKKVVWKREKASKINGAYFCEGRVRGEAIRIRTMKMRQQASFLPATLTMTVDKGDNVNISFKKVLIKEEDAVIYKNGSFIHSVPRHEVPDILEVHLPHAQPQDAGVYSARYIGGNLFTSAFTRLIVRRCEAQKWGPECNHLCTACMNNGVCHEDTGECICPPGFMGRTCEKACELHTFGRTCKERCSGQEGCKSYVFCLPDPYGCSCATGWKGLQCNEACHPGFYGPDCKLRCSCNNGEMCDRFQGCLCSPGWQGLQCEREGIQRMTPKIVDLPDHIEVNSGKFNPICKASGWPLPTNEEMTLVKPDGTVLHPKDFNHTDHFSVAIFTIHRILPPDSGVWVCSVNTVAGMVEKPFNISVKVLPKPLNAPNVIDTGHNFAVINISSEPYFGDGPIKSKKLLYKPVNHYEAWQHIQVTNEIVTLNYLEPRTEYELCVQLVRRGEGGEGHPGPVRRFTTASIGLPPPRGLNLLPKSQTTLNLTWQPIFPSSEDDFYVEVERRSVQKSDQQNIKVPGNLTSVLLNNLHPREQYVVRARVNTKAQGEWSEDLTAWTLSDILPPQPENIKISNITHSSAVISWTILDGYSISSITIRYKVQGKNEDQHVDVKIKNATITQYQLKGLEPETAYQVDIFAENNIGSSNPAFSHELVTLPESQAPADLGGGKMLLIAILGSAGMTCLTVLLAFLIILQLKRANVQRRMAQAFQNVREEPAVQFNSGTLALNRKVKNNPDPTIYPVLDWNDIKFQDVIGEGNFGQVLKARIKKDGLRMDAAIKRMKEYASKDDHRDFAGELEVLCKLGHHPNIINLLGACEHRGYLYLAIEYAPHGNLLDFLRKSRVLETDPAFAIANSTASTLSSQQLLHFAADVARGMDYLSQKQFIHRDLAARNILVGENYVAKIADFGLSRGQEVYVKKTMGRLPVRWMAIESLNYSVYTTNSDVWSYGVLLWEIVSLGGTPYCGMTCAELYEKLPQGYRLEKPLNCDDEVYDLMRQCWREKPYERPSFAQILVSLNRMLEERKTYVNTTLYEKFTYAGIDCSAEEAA

panel of 442 kinases [3] = target: T3, panel of 442 kinases (Homo sapiens, UniProt Q56UN5); settings: kinase YSK4; for remaining activity at 1 µM: read-out: YSK4 (% of control at 1 µM)
T3 construct: purchased Ambit Biosciences (scanMAXX KINOMEscan)
T3 sequence (Q56UN5 1-1328): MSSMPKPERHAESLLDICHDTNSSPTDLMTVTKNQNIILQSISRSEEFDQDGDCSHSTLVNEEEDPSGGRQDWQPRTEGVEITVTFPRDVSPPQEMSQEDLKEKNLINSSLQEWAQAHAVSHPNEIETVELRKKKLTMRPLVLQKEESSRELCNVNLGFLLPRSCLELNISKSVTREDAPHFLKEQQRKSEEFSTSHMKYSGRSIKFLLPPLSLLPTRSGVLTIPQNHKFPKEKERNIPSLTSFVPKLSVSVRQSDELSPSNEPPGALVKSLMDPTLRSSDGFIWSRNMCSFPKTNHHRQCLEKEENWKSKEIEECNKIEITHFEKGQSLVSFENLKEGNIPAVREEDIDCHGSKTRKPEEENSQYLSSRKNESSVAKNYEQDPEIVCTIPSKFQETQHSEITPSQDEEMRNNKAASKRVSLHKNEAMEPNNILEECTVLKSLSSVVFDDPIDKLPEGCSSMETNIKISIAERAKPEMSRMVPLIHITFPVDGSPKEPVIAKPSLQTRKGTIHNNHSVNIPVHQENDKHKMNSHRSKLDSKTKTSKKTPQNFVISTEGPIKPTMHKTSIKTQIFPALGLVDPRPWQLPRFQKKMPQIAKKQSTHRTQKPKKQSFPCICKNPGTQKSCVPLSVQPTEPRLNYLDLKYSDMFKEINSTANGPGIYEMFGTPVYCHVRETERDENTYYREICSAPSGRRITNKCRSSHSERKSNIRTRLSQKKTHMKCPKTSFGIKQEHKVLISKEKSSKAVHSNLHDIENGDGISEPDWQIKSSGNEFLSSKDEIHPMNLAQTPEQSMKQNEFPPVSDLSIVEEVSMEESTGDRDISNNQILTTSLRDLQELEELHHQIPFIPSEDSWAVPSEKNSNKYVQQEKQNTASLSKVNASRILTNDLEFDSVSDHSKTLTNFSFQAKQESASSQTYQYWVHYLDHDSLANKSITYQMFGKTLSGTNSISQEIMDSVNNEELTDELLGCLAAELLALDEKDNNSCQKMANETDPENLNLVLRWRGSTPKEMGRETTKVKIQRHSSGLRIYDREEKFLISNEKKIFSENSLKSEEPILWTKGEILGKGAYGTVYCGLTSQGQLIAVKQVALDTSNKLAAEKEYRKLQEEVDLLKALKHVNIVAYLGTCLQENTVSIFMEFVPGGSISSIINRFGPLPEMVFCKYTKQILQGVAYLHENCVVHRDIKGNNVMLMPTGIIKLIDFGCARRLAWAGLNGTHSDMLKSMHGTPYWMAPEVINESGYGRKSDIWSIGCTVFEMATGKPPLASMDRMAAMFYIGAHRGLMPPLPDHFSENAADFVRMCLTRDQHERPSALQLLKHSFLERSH

panel of 442 kinases [4] = target: T4, panel of 442 kinases (Homo sapiens, UniProt P51957); settings: kinase NEK4; for remaining activity at 1 µM: read-out: % of control at 1 µM
T4 construct: purchased Ambit Biosciences (scanMAXX KINOMEscan)
T4 sequence (P51957 whole entry): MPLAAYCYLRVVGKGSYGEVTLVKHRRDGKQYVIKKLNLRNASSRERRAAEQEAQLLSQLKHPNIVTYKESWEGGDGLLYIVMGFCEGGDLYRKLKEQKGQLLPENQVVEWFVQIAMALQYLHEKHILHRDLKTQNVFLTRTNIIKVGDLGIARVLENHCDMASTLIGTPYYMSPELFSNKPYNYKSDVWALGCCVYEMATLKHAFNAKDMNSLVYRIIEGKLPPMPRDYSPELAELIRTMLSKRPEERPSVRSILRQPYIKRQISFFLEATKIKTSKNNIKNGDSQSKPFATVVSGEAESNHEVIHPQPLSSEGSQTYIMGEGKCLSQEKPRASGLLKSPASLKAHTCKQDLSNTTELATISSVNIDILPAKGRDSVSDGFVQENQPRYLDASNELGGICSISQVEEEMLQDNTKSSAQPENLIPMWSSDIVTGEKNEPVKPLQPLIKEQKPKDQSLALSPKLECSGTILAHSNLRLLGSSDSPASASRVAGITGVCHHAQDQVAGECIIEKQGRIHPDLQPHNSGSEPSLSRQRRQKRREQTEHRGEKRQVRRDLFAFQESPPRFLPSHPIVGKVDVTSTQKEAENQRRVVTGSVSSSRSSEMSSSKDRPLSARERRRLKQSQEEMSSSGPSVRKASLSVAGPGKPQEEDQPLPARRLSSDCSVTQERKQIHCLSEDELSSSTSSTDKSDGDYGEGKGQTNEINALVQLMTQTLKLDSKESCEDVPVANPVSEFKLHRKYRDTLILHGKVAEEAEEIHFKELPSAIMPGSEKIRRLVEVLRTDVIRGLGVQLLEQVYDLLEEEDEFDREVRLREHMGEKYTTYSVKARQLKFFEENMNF

panel of 442 kinases [5] = target: T5, panel of 442 kinases (Homo sapiens, UniProt Q96GD4); settings: AURKB; for remaining activity at 1 µM: read-out: % of control at 1 µM
T5 construct: purchased Ambit Biosciences (scanMAXX KINOMEscan)
T5 sequence (Q96GD4 whole entry): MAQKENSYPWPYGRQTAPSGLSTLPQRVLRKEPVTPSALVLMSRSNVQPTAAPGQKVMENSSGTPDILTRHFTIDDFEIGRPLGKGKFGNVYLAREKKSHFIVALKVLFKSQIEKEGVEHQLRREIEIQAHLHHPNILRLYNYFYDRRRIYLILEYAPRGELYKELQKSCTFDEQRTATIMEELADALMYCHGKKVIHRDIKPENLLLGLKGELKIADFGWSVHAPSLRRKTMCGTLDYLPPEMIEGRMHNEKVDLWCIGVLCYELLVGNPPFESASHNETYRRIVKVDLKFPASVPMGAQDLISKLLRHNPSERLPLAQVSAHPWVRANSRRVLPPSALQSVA

panel of 442 kinases [6] = target: T6, panel of 442 kinases (Homo sapiens, UniProt P49674); settings: CSNK1E; for remaining activity at 1 µM: read-out: % of control at 1 µM
T6 construct: purchased Ambit Biosciences (scanMAXX KINOMEscan)
T6 sequence (P49674 whole entry): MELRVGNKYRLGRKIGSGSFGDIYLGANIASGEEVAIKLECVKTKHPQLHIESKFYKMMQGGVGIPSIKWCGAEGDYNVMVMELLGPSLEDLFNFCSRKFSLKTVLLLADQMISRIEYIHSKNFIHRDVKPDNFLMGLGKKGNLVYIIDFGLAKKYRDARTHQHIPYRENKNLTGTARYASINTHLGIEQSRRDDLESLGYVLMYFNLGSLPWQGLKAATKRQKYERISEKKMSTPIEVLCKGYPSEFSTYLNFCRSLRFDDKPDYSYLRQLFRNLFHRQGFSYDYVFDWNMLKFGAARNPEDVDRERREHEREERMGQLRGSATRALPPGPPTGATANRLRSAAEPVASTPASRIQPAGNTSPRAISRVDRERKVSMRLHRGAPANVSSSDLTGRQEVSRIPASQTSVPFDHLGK

panel of 442 kinases [7] = target: T7, panel of 442 kinases (Homo sapiens, UniProt Q96L34); settings: kinase MARK4; for remaining activity at 1 µM: read-out: % of control at 1 µM
T7 construct: purchased Ambit Biosciences (scanMAXX KINOMEscan)
T7 sequence (Q96L34 1-752): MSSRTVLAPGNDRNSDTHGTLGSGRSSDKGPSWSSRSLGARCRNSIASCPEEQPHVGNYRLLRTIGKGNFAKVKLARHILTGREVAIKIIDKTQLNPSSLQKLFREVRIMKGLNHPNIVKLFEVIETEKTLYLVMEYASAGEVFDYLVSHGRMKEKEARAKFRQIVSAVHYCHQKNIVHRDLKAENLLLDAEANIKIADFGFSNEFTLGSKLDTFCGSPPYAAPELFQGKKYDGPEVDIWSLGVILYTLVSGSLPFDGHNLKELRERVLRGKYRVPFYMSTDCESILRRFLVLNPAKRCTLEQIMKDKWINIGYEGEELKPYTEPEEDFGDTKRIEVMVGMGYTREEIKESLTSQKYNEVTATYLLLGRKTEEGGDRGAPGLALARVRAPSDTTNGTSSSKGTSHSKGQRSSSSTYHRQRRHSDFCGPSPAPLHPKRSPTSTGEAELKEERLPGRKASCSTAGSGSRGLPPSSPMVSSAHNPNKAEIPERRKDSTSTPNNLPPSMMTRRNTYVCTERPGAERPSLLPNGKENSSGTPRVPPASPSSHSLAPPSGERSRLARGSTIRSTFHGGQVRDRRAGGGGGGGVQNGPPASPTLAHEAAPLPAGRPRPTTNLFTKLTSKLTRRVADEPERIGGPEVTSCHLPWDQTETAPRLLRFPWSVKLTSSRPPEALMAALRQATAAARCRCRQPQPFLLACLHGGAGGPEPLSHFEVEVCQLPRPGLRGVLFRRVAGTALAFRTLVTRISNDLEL

panel of 442 kinases [8] = target: T8, panel of 442 kinases (Homo sapiens, UniProt P07949, M918T); settings: kinase RET(M918T); for remaining activity at 1 µM: read-out: RET(M918T) (% of control at 1 µM)
T8 construct: purchased Ambit Biosciences (scanMAXX KINOMEscan)
T8 sequence (P07949 29-1114 M918T): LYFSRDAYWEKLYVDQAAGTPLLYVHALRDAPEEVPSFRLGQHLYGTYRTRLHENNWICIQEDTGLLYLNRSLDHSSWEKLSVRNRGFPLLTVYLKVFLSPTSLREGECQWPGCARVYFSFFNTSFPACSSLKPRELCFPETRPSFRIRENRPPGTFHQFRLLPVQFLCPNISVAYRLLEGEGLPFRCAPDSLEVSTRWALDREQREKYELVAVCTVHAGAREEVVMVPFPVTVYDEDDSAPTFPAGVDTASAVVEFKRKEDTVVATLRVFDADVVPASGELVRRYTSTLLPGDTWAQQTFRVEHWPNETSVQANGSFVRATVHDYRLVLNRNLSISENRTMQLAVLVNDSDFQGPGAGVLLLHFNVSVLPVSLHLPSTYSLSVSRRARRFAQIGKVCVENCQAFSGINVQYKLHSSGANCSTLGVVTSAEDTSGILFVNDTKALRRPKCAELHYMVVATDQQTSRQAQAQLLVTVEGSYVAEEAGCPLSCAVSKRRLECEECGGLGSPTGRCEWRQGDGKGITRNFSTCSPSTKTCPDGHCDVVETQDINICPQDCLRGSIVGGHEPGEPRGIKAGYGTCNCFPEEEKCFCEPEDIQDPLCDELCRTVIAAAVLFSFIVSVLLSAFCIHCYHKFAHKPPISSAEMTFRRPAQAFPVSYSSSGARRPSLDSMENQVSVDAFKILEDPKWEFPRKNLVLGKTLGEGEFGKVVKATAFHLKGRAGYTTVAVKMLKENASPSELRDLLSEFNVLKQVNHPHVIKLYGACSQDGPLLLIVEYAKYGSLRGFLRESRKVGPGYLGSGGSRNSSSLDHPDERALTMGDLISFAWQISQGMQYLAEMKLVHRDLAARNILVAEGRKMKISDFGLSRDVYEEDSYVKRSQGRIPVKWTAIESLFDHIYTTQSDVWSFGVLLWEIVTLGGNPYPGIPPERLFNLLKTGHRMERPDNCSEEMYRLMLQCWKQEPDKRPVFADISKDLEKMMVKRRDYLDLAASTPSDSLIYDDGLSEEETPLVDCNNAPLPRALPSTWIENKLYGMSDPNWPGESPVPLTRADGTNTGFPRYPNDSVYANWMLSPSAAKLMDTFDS

panel of 442 kinases [9] = target: T9, panel of 442 kinases (Homo sapiens, UniProt O75914); settings: kinase PAK3; for remaining activity at 1 µM: read-out: % of control at 1 µM
T9 construct: purchased Ambit Biosciences (scanMAXX KINOMEscan)
T9 sequence (O75914 whole entry): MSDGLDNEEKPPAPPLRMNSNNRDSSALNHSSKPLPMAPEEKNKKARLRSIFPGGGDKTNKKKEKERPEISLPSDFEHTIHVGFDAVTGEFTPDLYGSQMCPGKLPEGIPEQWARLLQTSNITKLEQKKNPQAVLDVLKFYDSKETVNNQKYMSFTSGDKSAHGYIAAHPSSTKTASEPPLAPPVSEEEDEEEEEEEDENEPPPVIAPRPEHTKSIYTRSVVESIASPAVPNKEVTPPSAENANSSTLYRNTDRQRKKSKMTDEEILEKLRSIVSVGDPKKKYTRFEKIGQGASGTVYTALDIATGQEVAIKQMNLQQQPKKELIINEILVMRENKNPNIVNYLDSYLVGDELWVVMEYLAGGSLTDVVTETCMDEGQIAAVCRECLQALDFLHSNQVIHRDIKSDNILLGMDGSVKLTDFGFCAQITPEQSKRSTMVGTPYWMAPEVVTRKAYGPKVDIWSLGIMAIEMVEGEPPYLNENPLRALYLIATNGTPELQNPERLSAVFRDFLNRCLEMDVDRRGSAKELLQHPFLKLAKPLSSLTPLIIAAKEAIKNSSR

[10] = 10 µM, read-out: % of control at 10 µM

T1 sequence (P50750 whole entry): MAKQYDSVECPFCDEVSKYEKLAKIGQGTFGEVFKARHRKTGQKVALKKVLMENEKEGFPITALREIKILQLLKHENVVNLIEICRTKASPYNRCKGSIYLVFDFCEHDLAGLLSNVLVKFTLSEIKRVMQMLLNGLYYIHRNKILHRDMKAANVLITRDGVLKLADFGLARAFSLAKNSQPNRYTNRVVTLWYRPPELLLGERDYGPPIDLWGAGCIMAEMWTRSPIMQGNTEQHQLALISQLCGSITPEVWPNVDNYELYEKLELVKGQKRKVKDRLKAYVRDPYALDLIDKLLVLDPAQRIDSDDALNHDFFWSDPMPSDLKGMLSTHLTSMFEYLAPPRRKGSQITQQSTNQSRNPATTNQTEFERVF

Structure (SMILES) | remaining activity at 1 µM (panel of 442 kinases [1]) [%] | remaining activity at 10 µM (panel of 442 kinases [1]; [10]) [%] | remaining activity at 1 µM (panel of 442 kinases [2]) [%] | remaining activity at 10 µM (panel of 442 kinases [2]; 10 µM, read-out: TIE2 (% of control at 10 µM)) [%] | remaining activity at 1 µM (panel of 442 kinases [3]) [%] | remaining activity at 10 µM (panel of 442 kinases [3]; 10 µM, read-out: YSK4 (% of control at 10 µM)) [%] | remaining activity at 1 µM (panel of 442 kinases [4]) [%] | remaining activity at 10 µM (panel of 442 kinases [4]; [10]) [%] | remaining activity at 1 µM (panel of 442 kinases [5]) [%] | remaining activity at 10 µM (panel of 442 kinases [5]; [10]) [%] | remaining activity at 1 µM (panel of 442 kinases [6]) [%] | remaining activity at 10 µM (panel of 442 kinases [6]; [10]) [%] | remaining activity at 1 µM (panel of 442 kinases [7]) [%] | remaining activity at 10 µM (panel of 442 kinases [7]; [10]) [%] | remaining activity at 1 µM (panel of 442 kinases [8]) [%] | remaining activity at 10 µM (panel of 442 kinases [8]; 10 µM, read-out: RET(M918T) (% of control at 10 µM)) [%] | remaining activity at 1 µM (panel of 442 kinases [9]) [%] | remaining activity at 10 µM (panel of 442 kinases [9]; [10]) [%]
Nc1cc(C(F)(F)F)c(-c2cc(N3CCOCC3)nc(N3CCOCC3)n2)cn1 [Buparlisib] | 85 | 85 | 100 | 100 | 72 | 78 | 77 | 99 | 93 | 100 | 100 | 72 | 100 | 91 | 100 | 95 | 89 | 100
Cn1c(=O)n(-c2ccc(C(C)(C)C#N)cc2)c2c3cc(-c4cnc5ccccc5c4)ccc3ncc21 [Dactolisib, 2-methyl-2-[4-(3-methyl-2-oxo-8-quinolin-3-yl-2,3-dihydroimidazo[4,5-c]quinolin-1-yl)-phenyl] propionitrile] | 91 |  | 100 |  | 28 |  | 88 |  |  |  | 54 |  | 61 |  | 100 |  | 86 | 
COc1ncc(-c2ccc3nccc(-c4ccnnc4)c3c2)cc1NS(=O)(=O)c1ccc(F)cc1F [Omipalisib] | 100 |  | 100 |  | 77 |  | 100 |  | 100 |  | 100 |  | 83 |  | 100 |  | 100 | 
FC(F)c1nc2ccccc2n1-c1nc(N2CCOCC2)nc(N2CCOCC2)n1 [ZSTK474, 2-(difluoromethyl)-1-[4,6-di(4-morpholinyl)-1,3,5-triazin-2-yl]-1H-benzimidazole] | 100 |  | 100 |  | 100 |  | 100 |  | 90 |  | 100 |  | 100 |  | 89 |  | 73 | 
